System: 361931-004-R-J1-PDC multicell spheroid viability
Experiment: Anticancer human tumor 361931-004-R-J1-PDC patient-derived colon adenocarcinoma cell line growth inhibition [PI3K]
Details: for IC50: curve of first compound; for viability, T/C: stronger effect = lower value
From the text: Combinatorial screen of targeted agents with the PI3K inhibitors inavolisib, alpelisib, duvelisib, and copanlisib in multi-cell type tumor spheroids
A high-throughput screen of multi-cell type tumor spheroids was designed to identify active combinations of targeted small molecules and PI3K pathway inhibitors. Complex spheroids include a stromal component modeled by human endothelial cells (HUVEC) and fibroblasts modeled by human mesenchymal stem cells (MSCs). The concentration ranges selected for each drug and investigational agent were based upon clinically achievable concentrations if the clinical Cmax of the agent was known.
Compounds. The drugs and investigational agents: inavolisib (NSC800729), alpelisib (NSC765974), duvelisib (NSC772469), copanlisib (NSC816437), ipatasertib (NSC767898), afuresertib (NSC778305), talazoparib (NSC767125), sapanisertib (NSC764658), selumetinib (NSC741078), tovorafenib (DAY101, NSC766906), vemurafenib (NSC761431), ravoxertinib (NSC781343), sotorasib (NSC818433), MRTX1133 (NSC 836407), abemaciclib (NSC 768073), palbociclib (NSC758247), venetoclax (NSC 766270), SY5609 (NSC837396), enzalutamide (NSC755605), and darolutamide (NSC825331), were obtained from the National Cancer Institute (NCI) Developmental Therapeutics Program Chemical Repository. The FDA-approved anticancer drug set is available from the NCI Developmental Therapeutics Program. […] The stock solutions were prepared in dimethyl sulfoxide (DMSO, Sigma-Aldrich, St. Louis, MO, cat. D2650) at 800-fold the tested concentration and stored at -70 degrees C prior to their use. All drugs and investigational agents were tested over a range starting from a high concentration at or near the clinical Cmax and decreasing in half-log increments. If the clinical Cmax for an agent had not been determined, the highest concentration tested was 10 microM.
Cell Culture. All cells were maintained in an incubator at 37 degrees C and 5% CO2 with 95% humidity. The PDC lines were cultured according to standard operating procedures established by the NCI PDMR (https://pdmr.cancer.gov/sops/default.htm). All PDCs were thawed and cultured in Matrigel-coated flasks prepared with a working solution of 1X Ham's F-12 nutrient mix, without supplementation (Invitrogen, Waltham, MA, cat. 11765054), 100 U/mL penicillin-streptomycin (Invitrogen, cat. 15140122), and 2.5% Matrigel (Corning Inc., Corning, NY, cat. 354248) for the first three passages. The 354836-022-R-J1-PDC, 475296-252-R-J1-PDC, and 997726-040-R-J2-PDC lines were cultured in 6A media, which includes advanced DMEM/F-12 (Thermo Fisher Scientific, cat. 12634028), 10 mM HEPES (Thermo Fisher Scientific, cat. 15630080), 1X GlutaMAX supplement (Thermo Fisher Scientific, cat. 35050061), 0.1 mg/mL primocin (InvivoGen, San Diego, CA, cat. ant-pm-2), 10% defined fetal bovine serum, heat inactivated (HyClone Laboratories Inc., Logan, UT, cat. SH30070.03HI), 50% L-WRN conditioned media (ATCC, cat. CRL-3276), 1.25 mM N-Acetyl-L-cysteine (Sigma-Aldrich, cat. A9165), 10 mM nicotinamide (Sigma-Aldrich, cat. N0636), 1X B-27 supplement (Thermo Fisher Scientific, cat. 17504044), 1X N-2 supplement (Thermo Fisher Scientific, cat. 17502048), and 10 microM Y-27632 dihydrochloride (Tocris Bioscience, Bristol, United Kingdom, cat. 1254). The 624824-186-R-J2-PDC line was cultured in 6C/Colon 1B media, which includes all 6A media components plus 50 ng/mL human EGF recombinant protein (Thermo Fisher Scientific, cat. PHG0311). […]

[1] = second compound 0.00316 µM, first compound 0.0316 µM
[2] = second compound 0.00316 µM, first compound 0.1 µM
[3] = second compound 0.00316 µM, first compound 0.316 µM
[4] = second compound 0.00316 µM, first compound 1 µM
[5] = second compound 0.01 µM, first compound 0.0316 µM
[6] = second compound 0.01 µM, first compound 0.1 µM
[7] = second compound 0.01 µM, first compound 0.316 µM
[8] = second compound 0.01 µM, first compound 1 µM
[9] = second compound 0.0316 µM, first compound 0.0316 µM
[10] = second compound 0.0316 µM, first compound 0.1 µM
[11] = second compound 0.0316 µM, first compound 0.316 µM
[12] = second compound 0.0316 µM, first compound 1 µM
[13] = second compound 0.1 µM, first compound 0.0316 µM
[14] = second compound 0.1 µM, first compound 0.1 µM
[15] = second compound 0.1 µM, first compound 0.316 µM
[16] = second compound 0.1 µM, first compound 1 µM
[17] = second compound 0.316 µM, first compound 0.0316 µM
[18] = second compound 0.316 µM, first compound 0.1 µM
[19] = second compound 0.316 µM, first compound 0.316 µM
[20] = second compound 0.316 µM, first compound 1 µM
[21] = second compound 1 µM, first compound 0.0316 µM
[22] = second compound 1 µM, first compound 0.1 µM
[23] = second compound 1 µM, first compound 0.316 µM
[24] = second compound 1 µM, first compound 1 µM
[25] = second compound 0.00316 µM, first compound 0.00316 µM
[26] = second compound 0.00316 µM, first compound 0.01 µM
[27] = second compound 0.01 µM, first compound 0.00316 µM
[28] = second compound 0.01 µM, first compound 0.01 µM
[29] = second compound 0.0316 µM, first compound 0.00316 µM
[30] = second compound 0.0316 µM, first compound 0.01 µM
[31] = second compound 0.1 µM, first compound 0.00316 µM
[32] = second compound 0.1 µM, first compound 0.01 µM
[33] = second compound 0.316 µM, first compound 0.00316 µM
[34] = second compound 0.316 µM, first compound 0.01 µM
[35] = second compound 1 µM, first compound 0.00316 µM
[36] = second compound 1 µM, first compound 0.01 µM
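Also: spheroids exposed to agents for seven days before readout.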

CC(C)NCC(C(=O)N1CCN(c2ncnc3c2C(C)CC3O)CC1)c1ccc(Cl)cc1 (stereo unspecified) + CC(Nc1ccc2c(c1)OCCn1cc(N3C(=O)OCC3C(F)F)nc1-2)C(N)=O
IC50 (second compound 0.00316 µM): 1.27 µM | IC50 (second compound 0.01 µM): 1.24 µM | IC50 (second compound 0.0316 µM): 0.906 µM | IC50 (second compound 0.1 µM): 1.36 µM | IC50 (second compound 0.316 µM): 1.04 µM | IC50 (second compound 1 µM): 1.09 µM | viability, T/C [1]: 93.3% | viability, T/C [2]: 99% | viability, T/C [3]: 78.1% | viability, T/C [4]: 55.2% | viability, T/C (second compound 0.00316 µM, first compound 3.16 µM): 31.6% | viability, T/C (second compound 0.00316 µM, first compound 10 µM): 18.9% | viability, T/C [5]: 105% | viability, T/C [6]: 92.9% | viability, T/C [7]: 75.9% | viability, T/C [8]: 55.3% | viability, T/C (second compound 0.01 µM, first compound 3.16 µM): 31.8% | viability, T/C (second compound 0.01 µM, first compound 10 µM): 19.9% | viability, T/C [9]: 97.9% | viability, T/C [10]: 96.6% | viability, T/C [11]: 76% | viability, T/C [12]: 46.4% | viability, T/C (second compound 0.0316 µM, first compound 3.16 µM): 30.2% | viability, T/C (second compound 0.0316 µM, first compound 10 µM): 18.8% | viability, T/C [13]: 101% | viability, T/C [14]: 95% | viability, T/C [15]: 71.2% | viability, T/C [16]: 50.9% | viability, T/C (second compound 0.1 µM, first compound 3.16 µM): 41.8% | viability, T/C (second compound 0.1 µM, first compound 10 µM): 18.3% | viability, T/C [17]: 90.5% | viability, T/C [18]: 77.4% | viability, T/C [19]: 74% | viability, T/C [20]: 51.2% | viability, T/C (second compound 0.316 µM, first compound 3.16 µM): 28.6% | viability, T/C (second compound 0.316 µM, first compound 10 µM): 20.7% | viability, T/C [21]: 72.3% | viability, T/C [22]: 71.1% | viability, T/C [23]: 68.9% | viability, T/C [24]: 51.7% | viability, T/C (second compound 1 µM, first compound 3.16 µM): 25.3% | viability, T/C (second compound 1 µM, first compound 10 µM): 15.3%

CCN1CCN(Cc2ccc(Nc3ncc(F)c(-c4cc(F)c5nc(C)n(C(C)C)c5c4)n3)nc2)CC1 + CC(Nc1ccc2c(c1)OCCn1cc(N3C(=O)OCC3C(F)F)nc1-2)C(N)=O
IC50 (second compound 0.00316 µM): > 1 µM | IC50 (second compound 0.01 µM): > 1 µM | IC50 (second compound 0.0316 µM): > 1 µM | IC50 (second compound 0.1 µM): 0.504 µM | IC50 (second compound 0.316 µM): 0.142 µM | IC50 (second compound 1 µM): 0.146 µM | viability, T/C [25]: 96.2% | viability, T/C [26]: 100% | viability, T/C [1]: 91.2% | viability, T/C [2]: 86.9% | viability, T/C [3]: 86.2% | viability, T/C [4]: 64.3% | viability, T/C [27]: 104% | viability, T/C [28]: 99.1% | viability, T/C [5]: 77.5% | viability, T/C [6]: 81.4% | viability, T/C [7]: 86.1% | viability, T/C [8]: 56.7% | viability, T/C [29]: 91.4% | viability, T/C [30]: 98.2% | viability, T/C [9]: 76.2% | viability, T/C [10]: 80% | viability, T/C [11]: 68% | viability, T/C [12]: 55.4% | viability, T/C [31]: 90% | viability, T/C [32]: 87.6% | viability, T/C [13]: 71.7% | viability, T/C [14]: 63.4% | viability, T/C [15]: 67.2% | viability, T/C [16]: 36.4% | viability, T/C [33]: 75.7% | viability, T/C [34]: 86.4% | viability, T/C [17]: 62.8% | viability, T/C [18]: 55% | viability, T/C [19]: 42.5% | viability, T/C [20]: 33.1% | viability, T/C [35]: 75.4% | viability, T/C [36]: 75.1% | viability, T/C [21]: 54.4% | viability, T/C [22]: 56.1% | viability, T/C [23]: 45% | viability, T/C [24]: 32.2%

Cn1ncnc1[C@H]1c2n[nH]c(=O)c3cc(F)cc(c23)N[C@@H]1c1ccc(F)cc1 + CC(Nc1ccc2c(c1)OCCn1cc(N3C(=O)OCC3C(F)F)nc1-2)C(N)=O
IC50 (second compound 0.00316 µM): > 0.1 µM | IC50 (second compound 0.01 µM): > 0.1 µM | IC50 (second compound 0.0316 µM): > 0.1 µM | IC50 (second compound 0.1 µM): > 0.1 µM | IC50 (second compound 0.316 µM): > 0.1 µM | IC50 (second compound 1 µM): > 0.1 µM | viability, T/C (second compound 0.00316 µM, first compound 0.000316 µM): 95.9% | viability, T/C (second compound 0.00316 µM, first compound 0.001 µM): 96.1% | viability, T/C [25]: 89.4% | viability, T/C [26]: 88.8% | viability, T/C [1]: 95.6% | viability, T/C [2]: 81.9% | viability, T/C (second compound 0.01 µM, first compound 0.000316 µM): 99.7% | viability, T/C (second compound 0.01 µM, first compound 0.001 µM): 98.7% | viability, T/C [27]: 94.6% | viability, T/C [28]: 94.2% | viability, T/C [5]: 89.8% | viability, T/C [6]: 91.1% | viability, T/C (second compound 0.0316 µM, first compound 0.000316 µM): 97.8% | viability, T/C (second compound 0.0316 µM, first compound 0.001 µM): 100% | viability, T/C [29]: 95.4% | viability, T/C [30]: 94.3% | viability, T/C [9]: 98% | viability, T/C [10]: 93.6% | viability, T/C (second compound 0.1 µM, first compound 0.000316 µM): 101% | viability, T/C (second compound 0.1 µM, first compound 0.001 µM): 77.5% | viability, T/C [31]: 93.7% | viability, T/C [32]: 86.2% | viability, T/C [13]: 82% | viability, T/C [14]: 67.1% | viability, T/C (second compound 0.316 µM, first compound 0.000316 µM): 89.3% | viability, T/C (second compound 0.316 µM, first compound 0.001 µM): 94.8% | viability, T/C [33]: 86.2% | viability, T/C [34]: 85.4% | viability, T/C [17]: 77.5% | viability, T/C [18]: 76.2% | viability, T/C (second compound 1 µM, first compound 0.000316 µM): 85.9% | viability, T/C (second compound 1 µM, first compound 0.001 µM): 77.4% | viability, T/C [35]: 88.2% | viability, T/C [36]: 69.7% | viability, T/C [21]: 70.6% | viability, T/C [22]: 64.4%
